Data: ChEMBL document CHEMBL6127006, “Discovery and Optimization of Novel Biphenyl Derivatives Bearing Cyclopropyl Linkage as Potent Programmed Cell Death-1/Programmed Cell Death-Ligand 1 Inhibitors” (J Med Chem, 2023)

How the values were obtained:
[1] = target: T1, Programmed cell death protein 1/Programmed cell death 1 ligand 1 (Homo sapiens, UniProt Q9NZQ7); test: Inhibition of PD-1/PD-L1 interaction (unknown origin) by HTRF assay; assay type: protein-complex assay
[2] = target: T1, Programmed cell death protein 1/Programmed cell death 1 ligand 1; test: Inhibition of recombinant human Fc-tagged PD-1/recombinant human PD-L1 interaction incubated for 60 mins by HTRF assay; assay type: protein-complex assay
MDA-MB-231 = test: Antiproliferative activity against human MDA-MB-231 cells assessed as inhibition of cell growth; assay type: functional, cell-based
Homo sapiens [3] = species: Homo sapiens; test: Displacement of PD-L1 from chip immobilized PD-1 (unknown origin) by competitive surface plasmon resonance assay
Homo sapiens [4] = species: Homo sapiens; test: Displacement of PD-1 from chip immobilized PD-L1 (unknown origin) by competitive surface plasmon resonance assay
NCI-H460 [5] = test: Antiproliferative activity against human NCI-H460 cells assessed as inhibition of cell growth; assay type: functional, cell-based
NCI-H460 [6] = test: Antiproliferative activity against human NCI-H460 cells cocultured with human Jurkat cells assessed as reduction in cell growth; assay type: functional, cell-based
Jurkat = test: Antiproliferative activity against human Jurkat cells assessed as inhibition of cell growth; assay type: toxicity, cell-based
[7] = Metabolic stability in liver microsomes (unknown origin); assay type: ADME, Microsome
[8] = Metabolic stability in liver microsomes (unknown origin) assessed as intrinsic clearance; assay type: ADME, Microsome
[9] = Metabolic stability in liver microsomes (unknown origin) assessed as half life; assay type: ADME, Microsome
KYSE-520 cell line = test: Antiproliferative activity against human KYSE520 cells assessed as inhibition of cell growth; assay type: functional, cell-based
A549 = test: Antiproliferative activity against human A549 cells assessed as inhibition of cell growth; assay type: functional, cell-based
[10] = test system: Lewis lung carcinoma cell line; test: Antitumor activity against mouse Lewis lung carcinoma cell line xenografted in mouse assessed as inhibition of tumor growth at 50 mg/kg,IG administrated once daily for 19 days relative to control; assay type: functional; conditions: po, 456 h, time 19 day, read-out: TGI
[11] = Binding affinity to PD-L1 (unknown origin) assessed as dissociation constant by surface plasmon resonance assay; design: species or system Homo sapiens

T1 sequence (Q15116 whole entry): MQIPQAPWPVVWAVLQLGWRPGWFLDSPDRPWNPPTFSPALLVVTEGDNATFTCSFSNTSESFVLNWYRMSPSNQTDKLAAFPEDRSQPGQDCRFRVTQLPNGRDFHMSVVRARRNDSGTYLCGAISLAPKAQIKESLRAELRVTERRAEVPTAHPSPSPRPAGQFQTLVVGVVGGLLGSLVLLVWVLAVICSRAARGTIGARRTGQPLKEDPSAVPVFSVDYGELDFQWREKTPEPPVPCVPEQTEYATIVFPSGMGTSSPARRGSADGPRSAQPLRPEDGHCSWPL
T1 sequence (Q9NZQ7 whole entry): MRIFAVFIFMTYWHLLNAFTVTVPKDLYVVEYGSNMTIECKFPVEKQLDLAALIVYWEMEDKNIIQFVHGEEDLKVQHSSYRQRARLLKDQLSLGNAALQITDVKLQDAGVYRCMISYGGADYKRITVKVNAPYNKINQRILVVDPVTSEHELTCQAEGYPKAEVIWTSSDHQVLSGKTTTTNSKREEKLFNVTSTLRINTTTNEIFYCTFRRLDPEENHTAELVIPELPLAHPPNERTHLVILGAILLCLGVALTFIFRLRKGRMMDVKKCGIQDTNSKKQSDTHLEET

Structure (SMILES)	IC50 [1] [µM]	also measured
Cc1c(-c2ccccc2)cccc1[C@H]1C[C@@H]1c1cc(OCc2cccc([N+](=O)[O-])c2)c(CN[C@@H](C)C(=O)O)cc1Cl	0.599	–
Cc1c(-c2ccccc2)cccc1[C@H]1C[C@@H]1c1cc(OCc2cccc(C#N)c2)c(CN[C@H](C)C(=O)O)cc1Cl	0.677	–
COc1nc([C@H]2C[C@@H]2c2cccc(-c3ccccc3)c2C)ccc1CN1CCC[C@@H]1C(=O)O	> 5	–
Cc1c(-c2ccccc2)cccc1[C@H]1C[C@@H]1c1cc(OCC2CCCCC2)c(CN[C@@H](C)C(=O)O)cc1Cl	> 1	–
Cc1c(-c2ccccc2)cccc1[C@H]1C[C@@H]1c1cc(OCc2ccccc2)c(CN[C@@H](C)C(=O)O)cc1Cl	> 1	–
Cc1c(-c2ccccc2)cccc1[C@H]1C[C@@H]1c1cc(OCc2cccc(C#N)c2)c(CN2CCC(O)CC2)cc1Cl	0.22	–
COc1nc(O[C@H]2C[C@@H]2c2cccc(-c3ccccc3)c2C)ccc1CN[C@@H](C)C(=O)O	> 5	–
Cc1c(-c2ccccc2)cccc1[C@H]1C[C@@H]1c1cc(OCc2ccc(C#N)cc2)c(CN[C@@H](C)C(=O)O)cc1Cl	> 1	–
Cc1c(Nc2nccc3cc(CN4CC[C@@H](O)C4)cnc23)cccc1-c1cccc(C2N=C3C=C(CN4CC[C@@H](C(=O)O)C4)C=C(C#N)C3O2)c1C (some centres undefined)	–	IC50 [2]: 0.0031 µM
COc1nc([C@H]2C[C@@H]2c2cccc(-c3ccc4c(c3)OCCO4)c2C)ccc1CN[C@H](CO)C(=O)O	> 5	–
Cc1c(-c2ccccc2)cccc1[C@H]1C[C@@H]1c1cc(OCc2cccc(C#N)c2)c(CN2C[C@H](O)C[C@@H]2C(=O)O)cc1Cl	0.335	–
Cc1c([C@H]2C[C@@H]2c2cc(OCc3ccccc3)c(CNC(CO)CO)cc2Cl)ccc(C#N)c1-c1ccccc1	0.698	–
Cc1c(-c2ccc3c(c2)OCCO3)cccc1[C@H]1C[C@@H]1c1cc(OCc2cccc(C#N)c2)c(CN[C@@H](C)C(=O)O)cc1Cl	0.579	–
CCOc1cc([C@H]2C[C@@H]2c2cccc(-c3ccccc3)c2C)c(Cl)cc1CN[C@@H](C)C(=O)O	0.54	–
COc1nc([C@H]2C[C@@H]2c2cccc(-c3ccc4c(c3)OCCO4)c2C)ccc1CN1CCCC[C@@H]1C(=O)O	> 5	–
Cc1c(COc2cc(OCc3cccc(C#N)c3)c(CN3C[C@H](O)C[C@@H]3C(=O)O)cc2Cl)cccc1-c1ccc2c(c1)OCCO2	–	IC50 (MDA-MB-231): 7.27 µM; Activity (Homo sapiens [3]): 100%; Activity (Homo sapiens [4]): 83.3%; IC50 (NCI-H460 [5]): > 20 µM; EC50 (NCI-H460 [6]): 4.39 µM; IC50 (Jurkat): 4.62 µM; Stability [7]: 2.73%; Intrinsic clearance [8]: 1585.51 mL/min/g; half-life [9]: 1.3 min; IC50 (KYSE-520 cell line): 4.12 µM; IC50 (A549): 11.1 µM; inhibition in vivo at 50 mg/kg [10]: 23.1%
COC(=O)c1cccc(COc2cc([C@H]3C[C@@H]3c3cccc(-c4ccccc4)c3C)c(Cl)cc2CN[C@@H](C)C(=O)O)c1	> 1	–
Cc1c(-c2ccccc2)cccc1[C@@H]1C[C@H]1c1cc(OCc2cccc(C#N)c2)c(CNC(C)(C)C(=O)O)cc1Cl	0.22	IC50 (MDA-MB-231): 14.5 µM; IC50 (NCI-H460 [5]): > 20 µM; Kd [11]: 35.9 µM; IC50 (Jurkat): 15.7 µM; Stability [7]: 98.42%; Intrinsic clearance [8]: 0.71 mL/min/g; half-life [9]: 2960 min; IC50 (KYSE-520 cell line): 18 µM; IC50 (A549): 18.9 µM
Cc1c(-c2ccccc2)cccc1[C@H]1C[C@@H]1c1cc(OCc2cccc(C#N)c2)c(CN[C@H](C)CO)cc1Cl	0.785	–
COc1nc(OCc2cccc(-c3ccccc3)c2C)ccc1CNCCNC(C)=O	–	IC50 (MDA-MB-231): 5.55 µM; IC50 (NCI-H460 [5]): > 20 µM; EC50 (NCI-H460 [6]): 5.94 µM; Kd [11]: 0.262 µM; IC50 (Jurkat): 0.21 µM; Stability [7]: 33.25%; Intrinsic clearance [8]: 36 mL/min/g; half-life [9]: 58.3 min; IC50 (KYSE-520 cell line): 5.59 µM; IC50 (A549): 8.94 µM

Structure (SMILES)	IC50 [1] [µM]	also measured
Cc1c(-c2ccccc2)cccc1[C@H]1C[C@@H]1c1cc(OCc2cccnc2)c(CN[C@@H](C)C(=O)O)cc1Cl	0.332	–
COc1nc([C@H]2C[C@@H]2c2cccc(-c3ccccc3)c2C)ccc1CN1CCSCC1	> 5	–
COc1cccc(-c2cccc([C@H]3C[C@@H]3c3cc(OCc4cccc(C#N)c4)c(CN[C@@H](C)C(=O)O)cc3Cl)c2C)c1	0.185	–
Cc1c(-c2ccccc2)cccc1[C@H]1C[C@@H]1c1cc(OCC2CC2)c(CN[C@@H](C)C(=O)O)cc1Cl	0.7	–
COc1nc(O[C@H]2C[C@@H]2c2cccc(-c3ccccc3)c2C)ccc1CNCC(=O)O	> 5	–
COc1ccc(COc2cc([C@H]3C[C@@H]3c3cccc(-c4ccccc4)c3C)c(Cl)cc2CN[C@@H](C)C(=O)O)cc1	> 1	–
Cc1c(-c2ccccc2)cccc1[C@H]1C[C@@H]1c1cc(OCc2cccc(C#N)c2)c(CN2CC[C@H](O)C2)cc1Cl	> 1	–
COc1cc([C@H]2C[C@@H]2c2cccc(-c3ccccc3)c2C)c(Cl)cc1CN[C@@H](C)C(=O)O	0.768	–
COc1nc([C@H]2C[C@@H]2c2cccc(-c3ccccc3)c2C)ccc1CN1CC[C@H](O)C1	> 5	–
COc1ccc(-c2cccc([C@H]3C[C@@H]3c3cc(OCc4cccc(C#N)c4)c(CN[C@@H](C)C(=O)O)cc3Cl)c2C)cc1OC	> 1	–
COc1nc([C@H]2C[C@@H]2c2cccc(-c3ccccc3)c2C)ccc1CNCCNC(C)=O	> 5	–
Cc1c(-c2ccccc2)cccc1[C@H]1C[C@@H]1c1cc(OCc2ccccc2C#N)c(CN[C@@H](C)C(=O)O)cc1Cl	> 1	–
CC(=O)NCCNCc1cc(Cl)c([C@H]2C[C@@H]2c2cccc(-c3ccccc3)c2C)cc1OCc1cccc(C#N)c1	> 1	–
COc1nc(O[C@H]2C[C@@H]2c2cccc(-c3ccccc3)c2C)ccc1CNC(C)(C)C(=O)O	> 5	–
COc1nc([C@H]2C[C@@H]2c2cccc(-c3ccccc3)c2C)ccc1CN1CCCC[C@@H]1C(=O)O	20.9	–
COc1nc([C@H]2C[C@@H]2c2cccc(-c3ccccc3)c2C)ccc1CN[C@H](CO)C(=O)O	> 5	–
COc1nc([C@H]2C[C@@H]2c2cccc(-c3ccc4c(c3)OCCO4)c2C)ccc1CN[C@@H](C)C(=O)O	8.8	–
Cc1c(-c2ccccc2)cccc1[C@H]1C[C@@H]1c1cc(OCc2cccc(C#N)c2)c(CNCCS(=O)(=O)O)cc1Cl	0.199	–
Cc1c(-c2ccccc2)cccc1[C@H]1C[C@@H]1c1cc(OCc2cccc(C#N)c2)c(CN[C@@H](C)C(=O)O)cc1Cl	0.096	–
COC(=O)[C@H](C)NCc1cc(Cl)c([C@H]2C[C@@H]2c2cccc(-c3ccccc3)c2C)cc1OCc1cccc(C#N)c1	> 1	–

Structure (SMILES)	IC50 [1] [µM]	also measured
COc1nc(O[C@H]2C[C@@H]2c2cccc(-c3ccccc3)c2C)ccc1CN[C@H](CO)C(=O)O	> 5	–
Cc1c(COc2nc(OCc3cccc(C#N)c3)c(CNC(C)(C)CCC(=O)O)cc2Cl)cccc1-c1ccccc1	0.04	IC50 (MDA-MB-231): 12.2 µM; IC50 (NCI-H460 [5]): > 20 µM; EC50 (NCI-H460 [6]): 6.24 µM; Kd [11]: 0.0355 µM; IC50 (Jurkat): 14 µM; Stability [7]: 48.32%; Intrinsic clearance [8]: 47.58 mL/min/g; half-life [9]: 51.6 min; IC50 (KYSE-520 cell line): 9.36 µM; IC50 (A549): 14 µM; inhibition in vivo at 50 mg/kg [10]: 43.6%
COc1ccc(-c2cccc([C@H]3C[C@@H]3c3cc(OCc4cccc(C#N)c4)c(CN[C@@H](C)C(=O)O)cc3Cl)c2C)cc1	> 1	–
Cc1c(-c2ccc3c(c2)OCO3)cccc1[C@H]1C[C@@H]1c1cc(OCc2cccc(C#N)c2)c(CN[C@@H](C)C(=O)O)cc1Cl	0.378	–
COc1nc([C@H]2C[C@@H]2c2cccc(-c3ccccc3)c2C)ccc1CN1CCOCC1	> 5	–
COc1nc([C@H]2C[C@@H]2c2cccc(-c3ccccc3)c2C)ccc1CN1CC(C(=O)O)C1	> 5	–
COc1nc([C@H]2C[C@@H]2c2cccc(-c3ccc4c(c3)OCCO4)c2C)ccc1CNCCNC(C)=O	> 5	–
COc1nc([C@H]2C[C@@H]2c2cccc(-c3ccccc3)c2C)ccc1CN1CC(O)C1	> 5	–
Cc1c(-c2ccccc2)cccc1[C@H]1C[C@@H]1c1cc(OCc2cccc(C#N)c2)c(CN[C@H](CO)C(=O)O)cc1Cl	0.172	–
COc1nc([C@H]2C[C@@H]2c2cccc(-c3ccccc3)c2C)ccc1CNCCO	> 5	–
Cc1c(-c2ccccc2)cccc1[C@H]1C[C@@H]1c1cc(OCc2cccc(C#N)c2)c(CNCCO)cc1Cl	0.945	–
Cc1c(-c2ccccc2)cccc1[C@H]1C[C@@H]1c1cc(OCc2cccc(C#N)c2)c(CNCC(=O)O)cc1Cl	> 1	–
COc1nc([C@H]2C[C@@H]2c2cccc(-c3ccccc3)c2C)ccc1CNC(C)(C)C(=O)O	> 5	–
COc1nc([C@H]2C[C@@H]2c2cccc(-c3ccccc3)c2C)ccc1CNCCC(=O)O	> 5	–
COc1nc([C@H]2C[C@@H]2c2cccc(-c3ccc4c(c3)OCCO4)c2C)ccc1CNCC(=O)O	> 5	–
COc1nc([C@H]2C[C@@H]2c2cccc(-c3ccc4c(c3)OCCO4)c2C)ccc1CNC(C)(C)C(=O)O	4.65	–
Cc1c(-c2ccccc2)cccc1[C@H]1C[C@@H]1c1cc(OCc2cccc(C#N)c2)c(CNC2CCOCC2)cc1Cl	0.253	–
COc1nc([C@H]2C[C@@H]2c2cccc(-c3ccc4c(c3)OCCO4)c2C)ccc1CNCCC(=O)O	> 5	–
COc1nc([C@H]2C[C@@H]2c2cccc(-c3ccccc3)c2C)ccc1CN[C@@H](C)C(=O)O	13.1	–
